According to ChEMBL document CHEMBL3045366, “Pyridazin-3(2H)-ones: the versatile pharmacophore of medicinal significance” (Med Chem Res, 2013):

Assays:
[1] = Inhibition of acyl-coA cholesterol O-acyltransferase (unknown origin); design: species or system Homo sapiens
Thoracic aorta = test: Inodilatory activity in Wistar Rattus norvegicus (rat) thoracic aorta assessed as inhibition of phenylephrine-induced contraction; type: functional, tissue-based
Mus musculus = test: Anti-inflammatory activity in Mus musculus (mouse) assessed as inhibition of arachidonic acid-induced ear edema at 30 umol/kg, po relative to control; type: functional
[2] = Half life in Rattus norvegicus (rat); type: ADME, organism-based; conditions: in vivo

CCCCCCn1nc(-c2ccccc2)c(-c2ccccc2)cc1=O
IC50 [1]: 57 µM

CS(=O)(=O)Nc1ccc(C2=NN(c3ccccc3)C(=O)CC2)cc1
IC50 (Thoracic aorta): 0.08 µM

CCOc1ccc(C2=NN(CCCCOc3ccc(C4=NNC(=O)CC4C)cc3)C(=O)C3CC=CCC23)cc1OCC (stereo not given)
inhibition in vivo at 30 µmol/kg (Mus musculus): 46%

COc1ccc(C2=NN(CCCCOc3ccc(C4=NNC(=O)CC4C)cc3)C(=O)C3CC=CCC23)cc1Cl (stereo not given)
inhibition in vivo at 30 µmol/kg (Mus musculus): 46%

O=C(O)COc1cccc2c1CC[C@H](Cn1nc(C(c3ccccc3)c3ccccc3)ccc1=O)C2
half-life [2]: 4.3 h
